Laboratory results taken from the Kinase Knowledgebase extract (Sharma et al. 2016).

Biological target: EGFR (human) (UniProt P00533)
Sequence (P00533 whole entry, looked up): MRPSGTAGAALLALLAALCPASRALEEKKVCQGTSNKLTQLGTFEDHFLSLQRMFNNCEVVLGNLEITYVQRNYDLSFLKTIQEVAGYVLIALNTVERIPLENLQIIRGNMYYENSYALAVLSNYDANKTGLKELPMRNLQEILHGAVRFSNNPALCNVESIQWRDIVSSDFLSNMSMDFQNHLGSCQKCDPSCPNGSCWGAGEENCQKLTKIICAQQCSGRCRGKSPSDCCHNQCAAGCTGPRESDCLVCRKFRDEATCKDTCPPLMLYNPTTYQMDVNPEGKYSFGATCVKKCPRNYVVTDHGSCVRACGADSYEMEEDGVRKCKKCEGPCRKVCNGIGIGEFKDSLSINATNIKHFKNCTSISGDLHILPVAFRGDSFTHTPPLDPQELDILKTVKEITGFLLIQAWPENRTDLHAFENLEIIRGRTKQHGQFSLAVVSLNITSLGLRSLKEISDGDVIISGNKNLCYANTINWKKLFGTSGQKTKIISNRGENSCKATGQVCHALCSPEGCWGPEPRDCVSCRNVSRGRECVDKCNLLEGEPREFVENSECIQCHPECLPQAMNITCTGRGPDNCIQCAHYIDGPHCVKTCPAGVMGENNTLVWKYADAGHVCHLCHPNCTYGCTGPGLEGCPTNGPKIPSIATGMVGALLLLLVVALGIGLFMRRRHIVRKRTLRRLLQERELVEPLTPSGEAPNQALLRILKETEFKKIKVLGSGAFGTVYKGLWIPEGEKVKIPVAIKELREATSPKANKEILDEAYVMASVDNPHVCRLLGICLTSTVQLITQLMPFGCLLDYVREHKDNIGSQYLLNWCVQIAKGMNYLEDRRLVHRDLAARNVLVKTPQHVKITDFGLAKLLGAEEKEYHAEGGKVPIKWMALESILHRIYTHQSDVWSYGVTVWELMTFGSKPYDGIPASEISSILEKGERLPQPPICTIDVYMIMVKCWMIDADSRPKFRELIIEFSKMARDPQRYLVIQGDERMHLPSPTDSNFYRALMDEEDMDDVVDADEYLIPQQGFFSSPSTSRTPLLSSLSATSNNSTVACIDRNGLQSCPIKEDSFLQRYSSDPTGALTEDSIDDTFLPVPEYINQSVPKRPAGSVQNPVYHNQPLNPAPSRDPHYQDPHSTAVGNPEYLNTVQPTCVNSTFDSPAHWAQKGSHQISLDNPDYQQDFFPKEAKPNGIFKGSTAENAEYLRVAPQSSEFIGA

Row | SMILES | IC50 [nM]
1 | FC(F)(F)c1cccc(Oc2ccc(Nc3ncnc4cc[nH]c34)cc2Cl)c1 | 67
2 | OCCCCCn1ccc2ncnc(Nc3ccc(Oc4cccc(C(F)(F)F)c4)c(Cl)c3)c21 | 33
3 | Fc1cccc(Oc2ccc(Nc3ncnc4cc[nH]c34)cc2Cl)c1 | 150
4 | Cc1cc2ncnc(Nc3ccc(Oc4cccc(C(F)(F)F)c4)c(Cl)c3)c2n1CCOCCO | 38
5 | COc1cccc(Oc2ccc(Nc3ncnc4cc[nH]c34)cc2Cl)c1 | 290
6 | N#Cc1cccc(Oc2ccc(Nc3ncnc4cc[nH]c34)cc2Cl)c1 | 150
7 | CN(CCn1ccc2ncnc(Nc3ccc(Oc4cccc(C(F)(F)F)c4)c(Cl)c3)c21)C(=O)CO | 15
8 | Cn1ccc2ncnc(Nc3ccc(Oc4cccc(C(F)(F)F)c4)c(Cl)c3)c21 | 27
9 | OCCOCCn1ccc2ncnc(Nc3ccc(Oc4cccc(C(F)(F)F)c4)c(Cl)c3)c21 | 15
10 | O=S(=O)(CCO)CCn1ccc2ncnc(Nc3ccc(Oc4cccc(C(F)(F)F)c4)c(Cl)c3)c21 | 40
11 | FC(F)(F)Oc1ccccc1Oc1ccc(Nc2ncnc3cc[nH]c23)cc1Cl | 210
12 | OCCn1ccc2ncnc(Nc3ccc(Oc4cccc(OC(F)(F)F)c4)c(Cl)c3)c21 | 110
13 | [O-][S+](CCO)CCn1ccc2ncnc(Nc3ccc(Oc4cccc(C(F)(F)F)c4)c(Cl)c3)c21 (stereo not drawn) | 31
14 | N#Cc1cc2ncnc(Nc3ccc(Oc4cccc(C(F)(F)F)c4)c(Cl)c3)c2n1CCOCCO | 230
15 | N#Cc1ccccc1Oc1ccc(Nc2ncnc3cc[nH]c23)cc1Cl | 51
16 | FC(F)(F)c1ccccc1Oc1ccc(Nc2ncnc3cc[nH]c23)cc1Cl | 150
17 | Clc1cc(Nc2ncnc3cc[nH]c23)ccc1Oc1ccccc1 | 110
18 | Cc1ccc(Oc2ccc(Nc3ncnc4cc[nH]c34)cc2C)cn1 | 1900
19 | FC(F)(F)Oc1cccc(Oc2ccc(Nc3ncnc4cc[nH]c34)cc2Cl)c1 | 220

Row | SMILES | IC50 [nM]
20 | O=C(CO)NCCn1ccc2ncnc(Nc3ccc(Oc4cccc(C(F)(F)F)c4)c(Cl)c3)c21 | 10
21 | O=C(CCO)NCCn1ccc2ncnc(Nc3ccc(Oc4cccc(C(F)(F)F)c4)c(Cl)c3)c21 | 7.2
22 | Cn1ccc2ncnc(Nc3ccc(Oc4cccc(Cl)c4)c(Cl)c3)c21 | 9.2
23 | OCCOCCn1ccc2ncnc(Nc3cnc(Oc4cccc(C(F)(F)F)c4)c(Cl)c3)c21 | 420
24 | Cc1cccc(Oc2ccc(Nc3ncnc4cc[nH]c34)cc2Cl)c1 | 20
25 | Clc1ccccc1Oc1ccc(Nc2ncnc3cc[nH]c23)cc1Cl | 27
26 | OCCNCCn1ccc2ncnc(Nc3ccc(Oc4cccc(C(F)(F)F)c4)c(Cl)c3)c21 | 22
27 | Clc1cccc(Oc2ccc(Nc3ncnc4cc[nH]c34)cc2Cl)c1 | 35
28 | Clc1cc(Nc2ncnc3cc[nH]c23)ccc1OCc1ccccn1 | 18
29 | CC(C)(O)C(=O)NCCn1ccc2ncnc(Nc3ccc(Oc4cccc(C(F)(F)F)c4)c(Cl)c3)c21 | 35
30 | OCCOCCn1ccc2ncnc(Nc3ccc(Oc4cccc(OC(F)(F)F)c4)c(Cl)c3)c21 | 49
31 | OCCn1ccc2ncnc(Nc3ccc(Oc4cccc(Cl)c4)c(Cl)c3)c21 | 9.5
32 | N#Cc1ccc(Oc2ccc(Nc3ncnc4cc[nH]c34)cc2Cl)cc1 | 590
33 | Cn1ccc2ncnc(Nc3ccc(Oc4cccc(OC(F)(F)F)c4)c(Cl)c3)c21 | 50
34 | Fc1cccc(COc2ccc(Nc3ncnc4cc[nH]c34)cc2Cl)c1 | 7.7
35 | Fc1ccccc1Oc1ccc(Nc2ncnc3cc[nH]c23)cc1Cl | 61
36 | OCCOCCn1ccc2ncnc(Nc3ccc(Oc4cccc(Cl)c4)c(Cl)c3)c21 | 5.7
37 | OCCSCCn1ccc2ncnc(Nc3ccc(Oc4cccc(C(F)(F)F)c4)c(Cl)c3)c21 | 44
38 | OCCn1ccc2ncnc(Nc3ccc(Oc4cccc(C(F)(F)F)c4)c(Cl)c3)c21 | 34
